The source made the active and inactive calls. The calls are words filed in the database; no cut-off is given here.
Legend:
[1] = test system: Micrococcus luteus; experiment: Antibacterial activity against clinical isolate Micrococcus luteus assessed as reduction in microbial growth incubated for 24 hrs by broth microdilution method; type: functional
[2] = test system: Staphylococcus aureus; experiment: Antibacterial activity against clinical isolate Staphylococcus aureus 4721 assessed as reduction in microbial growth incubated for 24 hrs by broth microdilution method; type: functional
[3] = test system: Bacillus subtilis; experiment: Antibacterial activity against Bacillus subtilis 168 assessed as reduction in microbial growth incubated for 24 hrs by broth microdilution method; type: functional
[4] = test system: Staphylococcus aureus; experiment: Antibacterial activity against methicillin sensitive Staphylococcus aureus ATCC 29213 assessed as reduction in microbial growth incubated for 24 hrs by broth microdilution method; type: functional
[5] = test system: Staphylococcus epidermidis; experiment: Antibacterial activity against clinical isolate Staphylococcus epidermidis assessed as reduction in microbial growth incubated for 24 hrs by broth microdilution method; type: functional
[6] = test system: Pseudomonas aeruginosa; experiment: Antibacterial activity against Pseudomonas aeruginosa ATCC 27853 assessed as reduction in microbial growth incubated for 24 hrs by broth microdilution method; type: functional
[7] = test system: Escherichia coli; experiment: Antibacterial activity against Escherichia coli ATCC 25922 assessed as reduction in microbial growth incubated for 24 hrs by broth microdilution method; type: functional
[8] = test system: Salmonella typhimurium; experiment: Antibacterial activity against Salmonella typhimurium TA100 assessed as reduction in microbial growth incubated for 24 hrs by broth microdilution method; type: functional, Salmonella enterica subsp. enterica serovar Typhimurium; conditions: Salmonella enterica
[9] = test system: Staphylococcus auricularis; experiment: Antibacterial activity against clinical isolate Staphylococcus auricularis NKC 7 assessed as reduction in microbial growth incubated for 24 hrs by broth microdilution method; type: functional
[10] = test system: Staphylococcus haemolyticus; experiment: Antibacterial activity against clinical isolate Staphylococcus haemolyticus NKC 31/2 assessed as reduction in microbial growth incubated for 24 hrs by broth microdilution method; type: functional
[11] = test system: Staphylococcus epidermidis; experiment: Antibacterial activity against clinical isolate Staphylococcus epidermidis NKC 37/1 assessed as reduction in microbial growth incubated for 24 hrs by broth microdilution method; type: functional
[12] = test system: Staphylococcus aureus; experiment: Antibacterial activity against clinical isolate Staphylococcus aureus 1812 assessed as reduction in microbial growth incubated for 24 hrs by broth microdilution method; type: functional
[13] = test system: Staphylococcus aureus; experiment: Antibacterial activity against clinical isolate methicillin resistant Staphylococcus aureus 4771 assessed as reduction in microbial growth incubated for 24 hrs by broth microdilution method; type: functional
[14] = test system: Staphylococcus haemolyticus; experiment: Antibacterial activity against clinical isolate Staphylococcus haemolyticus 1464 assessed as reduction in microbial growth incubated for 24 hrs by broth microdilution method; type: functional
[15] = test system: Enterococcus faecalis; experiment: Antibacterial activity against clinical isolate Enterococcus faecalis 1465 assessed as reduction in microbial growth incubated for 24 hrs by broth microdilution method; type: functional
[16] = test system: Escherichia coli; experiment: Antibacterial activity against clinical isolate Escherichia coli NKC 1 assessed as reduction in microbial growth incubated for 24 hrs by broth microdilution method; type: functional
[17] = test system: Pseudomonas aeruginosa; experiment: Antibacterial activity against clinical isolate Pseudomonas aeruginosa NKC 17 assessed as reduction in microbial growth incubated for 24 hrs by broth microdilution method; type: functional
[18] = test system: Cedecea davisae; experiment: Antibacterial activity against clinical isolate Cedecea davisae 1813 assessed as reduction in microbial growth incubated for 24 hrs by broth microdilution method; type: functional
[19] = test system: Klebsiella pneumoniae; experiment: Antibacterial activity against clinical isolate Klebsiella pneumoniae 1678 assessed as reduction in microbial growth incubated for 24 hrs by broth microdilution method; type: functional
[20] = test system: Klebsiella aerogenes; experiment: Antibacterial activity against clinical isolate Enterobacter aerogenes NKC 8 assessed as reduction in microbial growth incubated for 24 hrs by broth microdilution method; type: functional
[21] = Cytotoxicity against human CHL assessed as reduction in cell viability incubated for 72 hrs by MTT assay; type: toxicity, cell-based; conditions: CHL cells
[22] = Cytotoxicity against human HSF assessed as reduction in cell viability incubated for 72 hrs by MTT assay; type: toxicity, cell-based; conditions: HSF cells
[23] = Cytotoxicity against human MSC assessed as reduction in cell viability incubated for 72 hrs by MTT assay; type: toxicity, cell-based; conditions: MSC cells
[24] = Toxicity in po dosed F1 C57Bl6 x CBA mouse assessed as lethal dose; type: organism-based; conditions: in vivo
[25] = Toxicity in po dosed rat assessed as lethal dose; type: organism-based; conditions: in vivo
[26] = Toxicity in F1 C57Bl6 x CBA mouse assessed as mortality at 2000 mg/kg, po; type: organism-based; conditions: in vivo
[27] = Toxicity in male rat assessed as mortality at 2000 mg/kg, po; type: organism-based; conditions: in vivo
[28] = Toxicity in female rat assessed as mortality at 2000 mg/kg, po; type: organism-based; conditions: in vivo
[29] = Genotoxicity in Salmonella typhimurium TA98 by Ames test; type: toxicity; conditions: salmonella enterica subsp. enterica serovar typhimurium
[30] = Genotoxicity in Salmonella typhimurium TA100 by Ames test; type: toxicity; conditions: salmonella enterica subsp. enterica serovar typhimurium
[31] = Genotoxicity in Salmonella typhimurium TA102 by Ames test; type: toxicity; conditions: salmonella enterica subsp. enterica serovar typhimurium
[32] = test system: Staphylococcus aureus; experiment: In vivo antibacterial activity against Staphylococcus aureus N-10 infected in SHK mouse model of sepsis assessed as animal death at 2 to 4 mg/kg, po measured after 5 to 14 days; type: functional, organism-based; conditions: dose 2-4 mg/kg, time 5-14 day
[33] = test system: Staphylococcus aureus; experiment: In vivo antibacterial activity against Staphylococcus aureus N-10 infected in SHK mouse model of sepsis assessed as survival at 16 to 18 mg/kg, po measured after 14 days relative to control; type: functional, organism-based; conditions: dose 16-18 mg/kg, time 14.0 day
[34] = test system: Staphylococcus aureus; experiment: In vivo antibacterial activity against Staphylococcus aureus N-10 infected in Po dosed SHK mouse model of sepsis assessed as survival measured after 14 days; type: functional; conditions: N-10, 336 h, time 14 day
[35] = test system: Staphylococcus aureus; experiment: Potency index ratio of ciprofloxacin ED50 to test compound ED50 for invivo antibacterial activity against Staphylococcus aureus N-10 infected in Po dosed SHK mouse model of sepsis; type: functional
[36] = target: T1, DNA gyrase (Staphylococcus aureus, UniProt P0A0K8+P20831); experiment: Inhibition of Staphylococcus aureus DNA gyrase using supercoiled pBR322 DNA as substrate incubated for 60 mins by ethidium bromide staining based agarose gel electrophoresis method; type: protein-complex assay
[37] = target: T1, DNA gyrase; experiment: Inhibition of Staphylococcus aureus DNA gyrase using relaxed pBR322 DNA as substrate incubated for 30 mins by ethidium bromide staining based agarose gel electrophoresis method; type: protein-complex assay
[38] = target: Topoisomerase IV (Staphylococcus aureus, UniProt P0C1S7+P0C1U9); experiment: Inhibition of Staphylococcus aureus topoisomerase-IV assessed as reduction in decatenation using kinetoplast DNA as substrate incubated for 30 mins by ethidium bromide staining based agarose gel electrophoresis method; type: protein-complex assay
[39] = Toxicity in po dosed male F1 C57Bl6 x CBA mouse assessed as lethal dose; type: organism-based; conditions: in vivo
[40] = Toxicity in po dosed female F1 C57Bl6 x CBA mouse assessed as lethal dose; type: organism-based; conditions: in vivo
[41] = Toxicity in male F1 C57Bl6 x CBA mouse assessed as mortality at 1000 to 2000 mg/kg, po; type: organism-based; conditions: in vivo, dose 1000-2000 mg/kg
[42] = Toxicity in male F1 C57Bl6 x CBA mouse assessed as mortality at 125 mg/kg, po; type: organism-based; conditions: in vivo
[43] = Toxicity in female F1 C57Bl6 x CBA mouse assessed as mortality at 1000 mg/kg, po; type: organism-based; conditions: in vivo
[44] = Toxicity in female F1 C57Bl6 x CBA mouse assessed as mortality at 125 mg/kg, po; type: organism-based; conditions: in vivo
[45] = Toxicity in F1 C57Bl6 x CBA mouse assessed as mortality at 1000 to 2000 mg/kg, po relative to control; type: organism-based; conditions: in vivo, dose 1000-2000 mg/kg
[46] = Toxicity in F1 C57Bl6 x CBA mouse assessed as mortality at […] 125 to 500 mg/kg, po relative to control; type: organism-based; conditions: in vivo, at 125 to 500 mg/kg, dose 125-500 mg/kg
[47] = Toxicity in rat assessed as kidney darkening at 2000 mg/kg, po after 14 days; type: organism-based; conditions: in vivo, 336 h, time 14 day
[48] = Toxicity in rat assessed as liver darkening at 2000 mg/kg, po after 14 days; type: organism-based; conditions: in vivo, 336 h, time 14 day
[49] = Toxicity in F1 C57Bl6 x CBA mouse assessed as kidney darkening at 125 mg/kg, po after 14 days; type: organism-based; conditions: in vivo, 336 h, time 14 day
[50] = Toxicity in F1 C57Bl6 x CBA mouse assessed as liver darkening at 125 mg/kg, po after 14 days; type: organism-based; conditions: in vivo, 336 h, time 14 day

Work on `Cc1ncc(CN2CCN(c3cc4c(cc3F)c(=O)c(C(=O)O)cn4C3CC3)CC2)c(CO)c1O.Cl` yielded an MIC [1] of 4 µg/mL, an MIC [2] of 0.5 µg/mL and an MIC [3] of 2 µg/mL. For the same molecule, the MIC [4] was 2 µg/mL, the MIC [5] was 2 µg/mL and the MIC [6] was over 64 µg/mL. The MIC [7] was 2 µg/mL, the MIC [8] was 2 µg/mL and the MIC [9] was 0.03 µg/mL. It also gave an MIC [10] of 8 µg/mL, an MIC [11] of 0.5 µg/mL and an MIC [12] of 1 µg/mL. The MIC [13] was 1 µg/mL, the MIC [14] was 1 µg/mL and the MIC [15] was 32 µg/mL. For the same molecule, the MIC [16] was 0.5 µg/mL, the MIC [17] was 16 µg/mL and the MIC [18] was 1 µg/mL. For the same molecule, the MIC [19] was 8 µg/mL, the MIC [20] was 2 µg/mL and the CC50 at 72 h [21] was 30.9 µg/mL. It also gave a CC50 at 72 h [22] of 34.5 µg/mL, a CC50 at 72 h [23] of 40.3 µg/mL and an LD50 [24] of over 2000 mg/kg. The LD50 [25] was over 2000 mg/kg, the Activity [26] was “Non-Toxic” and the Activity [27] was “Non-Toxic”. The Activity [28] was “Non-Toxic”, the Activity [29] was “Non-Toxic” and the Activity [30] was “Non-Toxic”. The Activity [31] was “Non-Toxic”, the Activity [32] was “inactive” and the Activity [33] was “Active”. The ED50 [34] was 7.3 mg/kg, the “Ratio ED50” value [35] was 1.5 and the IC50 [36] was 59.7 µM. It also gave an IC50 [37] of 1460 µM and an IC50 [38] of 397 µM.
Work on `COc1c(N2C[C@@H]3CCCN(Cc4cnc(C)c(O)c4C)[C@@H]3C2)c(F)cc2c(=O)c(C(=O)O)cn(C3CC3)c12.Cl.Cl` yielded an MIC [1] of 0.5 µg/mL, an MIC [2] of 0.06 µg/mL and an MIC [3] of 0.5 µg/mL. It also gave an MIC [4] of 0.5 µg/mL, an MIC [5] of 0.5 µg/mL and an MIC [6] of 1 µg/mL. For the same molecule, the MIC [7] was 2 µg/mL, the MIC [8] was 1 µg/mL and the MIC [9] was 0.03 µg/mL. It also gave an MIC [10] of 8 µg/mL, an MIC [11] of 0.06 µg/mL and an MIC [12] of 0.25 µg/mL. The MIC [13] was 0.06 µg/mL, the MIC [14] was 0.06 µg/mL and the MIC [15] was 4 µg/mL. It also gave an MIC [16] of 2 µg/mL, an MIC [17] of 64 µg/mL and an MIC [18] of 0.03 µg/mL. For the same molecule, the MIC [19] was 64 µg/mL, the MIC [20] was 16 µg/mL and the CC50 at 72 h [21] was 8.22 µg/mL. For the same molecule, the CC50 at 72 h [22] was 17.6 µg/mL, the CC50 at 72 h [23] was 12.7 µg/mL and the LD50 [39] was 406 mg/kg. For the same molecule, the LD50 [40] was 541 mg/kg, the LD50 [25] was over 2000 mg/kg and the Activity [27] was “Non-Toxic”. For the same molecule, the Activity [41] was “Toxic”, the Activity [42] was “Non-Toxic” and the Activity [43] was “Toxic”. For the same molecule, the Activity [44] was “Non-Toxic”, the mortality [45] was over 80% and the mortality [46] was 0%. The Activity [47] was “Toxic”, the Activity [48] was “Toxic” and the Activity [49] was “Non-Toxic”. The Activity [50] was “Non-Toxic”, the Activity [29] was “Non-Toxic” and the Activity [30] was “Non-Toxic”. For the same molecule, the Activity [31] was “Non-Toxic”, the IC50 [36] was over 656 µM and the IC50 [37] was 85.3 µM. The IC50 [38] was 26.2 µM.
